Assays:
[1] = for surface tension liquid-gas: Pendant drop shape; for electrical conductivity / viscosity / mass density: 101.33 kPa; for surface tension liquid-gas / electrical conductivity / viscosity / mass density: Liquid; for electrical conductivity: Alternating current cell with electrodes; for viscosity: Concentric cylinders viscometry; for mass density: Vibrating tube method
[2] = refractive index (Na D-line) (dimensionless); conditions: 101.33 kPa, Liquid, Standard Abbe refractometry

CC[n+]1cccc(C)c1.O=S(=O)([O-])C(F)(F)C(F)(F)C(F)(F)C(F)(F)F [1-ethyl-3-methylpyridinium perfluorobutanesulfonate]
[1]
Conditions	surface tension liquid-gas [mN/m]
298.3 K	26.35
303.4 K	26.16
313.4 K	25.77
323.6 K	25.39
332.9 K	25.12
343 K	24.7

CC[n+]1cccc(C)c1.O=C([O-])C(F)(F)C(F)(F)C(F)(F)C(F)(F)F [1-ethyl-3-methylpyridinium perfluoropentanoate]
Conditions	electrical conductivity, [1] [S/m]	mass density, [1] [kg/m3]	refractive index, [2]	surface tension liquid-gas, [1] [mN/m]	viscosity, [1] [mPa·s]
293.15 K	0.0915	1458.7	1.42282	–	196
298.15 K	0.12	1453.6	1.42137	–	147.1
298.3 K	–	–	–	26.83	–
303.15 K	0.155	1448.6	1.4199	–	110.8
308.15 K	0.194	1443.6	1.41844	–	85.39
308.2 K	–	–	–	26.49	–
313.15 K	0.239	1438.7	1.41697	–	67.81
317.9 K	–	–	–	26.07	–
318.15 K	0.289	1433.7	1.41553	–	53.67
323.15 K	0.355	1428.9	1.41406	–	43.6
328 K	–	–	–	25.71	–
328.15 K	–	1424	1.4126	–	35.94
333.15 K	–	1419.2	1.41114	–	30.35
338 K	–	–	–	25.31	–
338.15 K	–	1414.3	1.40955	–	25.32
343.15 K	–	1409.4	1.40811	–	21.61
347 K	–	–	–	24.94	–
348.15 K	–	1404.5	1.40672	–	18.61
353.15 K	–	1399.5	1.40531	–	16.39

Conditions	Normal melting temperature [°C]
[1], Crystal, DTA	2

CCCC[N+](CCCC)(CCCC)CCCC.O=S(=O)([O-])C(F)(F)C(F)(F)C(F)(F)C(F)(F)C(F)(F)C(F)(F)C(F)(F)C(F)(F)F [tetrabutylammonium heptadecafluorooctanesulfonate]
[1]
Conditions	surface tension liquid-gas [mN/m]
298.4 K	21.98
303.2 K	21.6
313.3 K	21.11
323.2 K	20.65
333.2 K	20.14
343 K	19.55

CCCC[N+](CCCC)(CCCC)CCCC.O=S(=O)([O-])C(F)(F)C(F)(F)C(F)(F)C(F)(F)F [tetrabutylammonium perfluorobutanesulfonate]
[1]
Conditions	surface tension liquid-gas [mN/m]
333.1 K	22.77
338 K	22.57
343.1 K	22.36
348.3 K	22.2
353.4 K	21.95

From the NIST ThermoML archive (doi:10.1016/j.jct.2016.02.013)
